According to ChEMBL document CHEMBL1201862, “PubChem BioAssay data set” (2004):
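All cell lines were grown in 96-well plates and treated with compound for 48 hours. Abbreviation: GI50, concentration required for 50% inhibition of growth.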 The source made the active and inactive calls. No stated cut-off is given here; in the data, active = GI50 up to about 1.1 µM and inactive = higher.

Assays:
Test in all cases: growth of human tumour cells (NCI), 48 h
U-251 = test system: U-251
KM-20L2 = test system: KM-20L2
DMS-273 = test system: DMS-273
UACC-257 = test system: UACC-257
HOP-62 = test system: HOP-62
Malme-3M = test system: Malme-3M
SK-OV-3 = test system: SK-OV-3
M14 = test system: M14
CAKI-1 = test system: CAKI-1
K562 = test system: K562
M19-MEL = test system: M19-MEL
UACC-62 = test system: UACC-62
OVCAR-8 = test system: OVCAR-8
SNB-19 = test system: SNB-19
RPMI-8226 = test system: RPMI-8226
SF-539 = test system: SF-539
OVCAR-5 = test system: OVCAR-5
OVCAR-3 = test system: OVCAR-3
786-0 = test system: 786-0
SR = test system: SR
EKVX = test system: EKVX
TK-10 = test system: TK-10
COLO 205 = test system: COLO 205
HCT-116 = test system: HCT-116
LXFL 529 = test system: LXFL 529
KM12 = test system: KM12
SF-295 = test system: SF-295
XF498 = test system: XF498
NCI-H460 = test system: NCI-H460
SN12C = test system: SN12C
SF-268 = test system: SF-268
HCC 2998 = test system: HCC 2998
RXF 393 = test system: RXF 393
SW-620 = test system: SW-620
LOX IMVI = test system: LOX IMVI
HL-60 = test system: HL-60
HOP-18 = test system: HOP-18
ACHN = test system: ACHN
MOLT-4 = test system: MOLT-4
HT-29 = test system: HT-29
DLD-1 = test system: DLD-1
RXF 631 = test system: RXF 631
SK-MEL-28 = test system: SK-MEL-28
NCI-H23 = test system: NCI-H23
NCI-H226 = test system: NCI-H226
A549 = test system: A549
DMS-114 = test system: DMS-114
HCT-15 = test system: HCT-15
SK-MEL-2 = test system: SK-MEL-2
CCRF-CEM = test system: CCRF-CEM
UO-31 = test system: UO-31
NCI-H522 = test system: NCI-H522
IGROV-1 = test system: IGROV-1
OVCAR-4 = test system: OVCAR-4
SK-MEL-5 = test system: SK-MEL-5
A498 = test system: A498
SNB-75 = test system: SNB-75
SNB-78 = test system: SNB-78
HOP-92 = test system: HOP-92

COc1ccc(/C=C/C(=O)c2sc(-n3nc(-c4ccccc4)cc3-c3ccccc3)nc2C)cc1OC
GI50 (U-251): 28.8 µM (inactive) | GI50 (KM-20L2): 20.9 µM (inactive) | GI50 (DMS-273): 36.6 µM (inactive) | GI50 (UACC-257): 39.5 µM (inactive) | GI50 (HOP-62): 57.1 µM (inactive) | GI50 (Malme-3M): 65.8 µM (inactive) | GI50 (SK-OV-3): > 100 µM (inactive) | GI50 (M14): 62.8 µM (inactive) | GI50 (CAKI-1): 54.2 µM (inactive) | GI50 (K562): 23.6 µM (inactive) | GI50 (M19-MEL): 42.4 µM (inactive) | GI50 (UACC-62): 13.9 µM (inactive) | GI50 (OVCAR-8): 31.4 µM (inactive) | GI50 (SNB-19): 36.6 µM (inactive) | GI50 (RPMI-8226): 22.1 µM (inactive) | GI50 (SF-539): 26.7 µM (inactive) | GI50 (OVCAR-5): 32.1 µM (inactive) | GI50 (OVCAR-3): 20.6 µM (inactive) | GI50 (786-0): 36.4 µM (inactive) | GI50 (SR): 24.9 µM (inactive) | GI50 (EKVX): 26.1 µM (inactive) | GI50 (TK-10): 62.5 µM (inactive) | GI50 (COLO 205): 36.6 µM (inactive) | GI50 (HCT-116): 31.3 µM (inactive) | GI50 (LXFL 529): 30.3 µM (inactive) | GI50 (KM12): 28.1 µM (inactive) | GI50 (SF-295): 28.1 µM (inactive) | GI50 (XF498): 49.3 µM (inactive) | GI50 (NCI-H460): 56.8 µM (inactive) | GI50 (SN12C): 31.6 µM (inactive) | GI50 (SF-268): 27.4 µM (inactive) | GI50 (HCC 2998): 51.1 µM (inactive) | GI50 (RXF 393): 57.1 µM (inactive) | GI50 (SW-620): 43.8 µM (inactive) | GI50 (LOX IMVI): 28.9 µM (inactive) | GI50 (HL-60): 25.2 µM (inactive) | GI50 (HOP-18): > 100 µM (inactive) | GI50 (ACHN): 49.8 µM (inactive) | GI50 (MOLT-4): 20.3 µM (inactive) | GI50 (HT-29): 30.1 µM (inactive) | GI50 (DLD-1): 21.8 µM (inactive) | GI50 (RXF 631): 24.5 µM (inactive) | GI50 (SK-MEL-28): 37.9 µM (inactive) | GI50 (NCI-H23): 34.9 µM (inactive) | GI50 (NCI-H226): 31.6 µM (inactive) | GI50 (A549): 39.4 µM (inactive) | GI50 (DMS-114): 28.1 µM (inactive) | GI50 (HCT-15): 32.4 µM | GI50 (SK-MEL-2): 62.1 µM (inactive) | GI50 (CCRF-CEM): 23.2 µM (inactive) | GI50 (UO-31): 42 µM (inactive) | GI50 (NCI-H522): 19.5 µM (inactive) | GI50 (IGROV-1): 24.3 µM (inactive) | GI50 (OVCAR-4): 38.5 µM (inactive)

O=[N+]([O-])c1ccc(C2CC(c3ccccc3Cl)=Nc3ccccc3S2)cc1 (stereo not drawn)
GI50 (U-251): 5.27 µM (inactive) | GI50 (KM-20L2): 4.74 µM (inactive) | GI50 (DMS-273): 4.71 µM (inactive) | GI50 (UACC-257): 12 µM (inactive) | GI50 (HOP-62): 22.3 µM (inactive) | GI50 (Malme-3M): 10.9 µM (inactive) | GI50 (SK-OV-3): 29 µM (inactive) | GI50 (M14): 12.1 µM (inactive) | GI50 (CAKI-1): 4.46 µM (inactive) | GI50 (K562): 1.75 µM (inactive) | GI50 (M19-MEL): 10.5 µM (inactive) | GI50 (SK-MEL-5): 3.95 µM (inactive) | GI50 (UACC-62): 3.99 µM (inactive) | GI50 (OVCAR-8): 2.2 µM (inactive) | GI50 (SNB-19): 4.3 µM (inactive) | GI50 (A498): 1.87 µM (inactive) | GI50 (RPMI-8226): 1.66 µM (inactive) | GI50 (SF-539): 6.65 µM (inactive) | GI50 (OVCAR-5): 12.9 µM (inactive) | GI50 (OVCAR-3): 8.79 µM (inactive) | GI50 (786-0): 3.69 µM (inactive) | GI50 (SR): 2.01 µM (inactive) | GI50 (SNB-75): 4.21 µM (inactive) | GI50 (EKVX): 14.5 µM (inactive) | GI50 (TK-10): 18.8 µM (inactive) | GI50 (SNB-78): 16.1 µM (inactive) | GI50 (COLO 205): 15.8 µM (inactive) | GI50 (HCT-116): 1.96 µM (inactive) | GI50 (LXFL 529): 2.84 µM (inactive) | GI50 (KM12): 3.08 µM (inactive) | GI50 (SF-295): 7.5 µM (inactive) | GI50 (XF498): 7.13 µM (inactive) | GI50 (NCI-H460): 6.85 µM (inactive) | GI50 (SN12C): 4.02 µM (inactive) | GI50 (SF-268): 4.15 µM (inactive) | GI50 (HOP-92): 6 µM (inactive) | GI50 (HCC 2998): 23.9 µM (inactive) | GI50 (RXF 393): 3.26 µM (inactive) | GI50 (SW-620): 1.78 µM (inactive) | GI50 (LOX IMVI): 3.7 µM (inactive) | GI50 (HL-60): 2.01 µM (inactive) | GI50 (HOP-18): 3.3 µM (inactive) | GI50 (ACHN): 7.85 µM (inactive) | GI50 (MOLT-4): 1.56 µM (inactive) | GI50 (HT-29): 4.35 µM (inactive) | GI50 (DLD-1): 2.3 µM (inactive) | GI50 (RXF 631): 5.74 µM (inactive) | GI50 (SK-MEL-28): 8.34 µM (inactive) | GI50 (NCI-H23): 6.15 µM (inactive) | GI50 (NCI-H226): 6.87 µM (inactive) | GI50 (A549): 5.69 µM (inactive) | GI50 (DMS-114): 2.19 µM (inactive) | GI50 (HCT-15): 5.35 µM | GI50 (SK-MEL-2): 11.7 µM (inactive) | GI50 (CCRF-CEM): 2.07 µM (inactive) | GI50 (UO-31): 4.88 µM (inactive) | GI50 (NCI-H522): 2.89 µM (inactive) | GI50 (IGROV-1): 7.23 µM (inactive) | GI50 (OVCAR-4): 9.84 µM (inactive)
